Laboratory results as given in patent publication US8431593B2, “Heteroaryl amide derivatives” (H. Lundbeck A/S, priority 2006, dated 2013).

Target: T1, P2X7 receptor (Homo sapiens, UniProt Q99572)
T1 construct: host or cells: SH-SY5Y
T1 sequence (Q99572 1-595): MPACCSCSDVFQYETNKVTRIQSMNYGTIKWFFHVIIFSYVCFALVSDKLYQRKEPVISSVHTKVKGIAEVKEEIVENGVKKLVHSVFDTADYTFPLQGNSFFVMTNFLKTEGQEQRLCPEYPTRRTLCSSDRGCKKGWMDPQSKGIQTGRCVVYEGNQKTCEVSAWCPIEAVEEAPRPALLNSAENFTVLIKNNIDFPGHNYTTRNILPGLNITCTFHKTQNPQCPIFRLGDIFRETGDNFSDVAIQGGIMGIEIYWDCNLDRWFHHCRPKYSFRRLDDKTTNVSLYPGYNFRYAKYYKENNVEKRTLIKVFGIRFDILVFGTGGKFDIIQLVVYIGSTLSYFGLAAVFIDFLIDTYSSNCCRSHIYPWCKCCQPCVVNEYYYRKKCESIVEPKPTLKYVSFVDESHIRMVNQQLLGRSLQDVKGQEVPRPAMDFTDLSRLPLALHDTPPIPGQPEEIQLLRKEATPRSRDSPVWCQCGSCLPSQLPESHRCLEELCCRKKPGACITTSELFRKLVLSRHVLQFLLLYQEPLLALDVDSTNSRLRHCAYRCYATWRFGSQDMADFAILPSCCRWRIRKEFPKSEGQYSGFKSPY
Assay: P2X7 calcium mobilization assay, high throughput, antagonist activity (Example 4A)
Assay type: cell-based
Conditions: 50% decrease in the fluorescence response of cells exposed to 80 μM 2′(3′)-O-(4-benzoyl-benzoyl)adenosine 5′-triphosphate; Example 4A; read-out: IC50
Summary of the method: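 100,000 cells/well, plated day -1. Dye 1 h → rinse → compound 1 h, RT → FLIPR^TETRA Ca2+ mobilization. Max RFU minus mean negative control (no agonist); mean agonist-well max as positive control.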

IC50	SMILES
< 2000 nM	CN(C)C(=O)c1cn2c(C(=O)NC[C@@H]3CC[C@H]4C[C@@H]3C4(C)C)cccc2n1 [Compound 470, 5-N-{[(1S,2R,5S)-6,6-dimethylbicyclo[3.1.1]hept-2-yl]methyl}-2-N,2-N-dimethylimidazo[1,2-a]pyridine-2,5-dicarboxamide]
< 2000 nM	O=C(NCC12CC3CC(CC(C3)C1)C2)c1cccc2nc(C(=O)N3CCNCC3)cn12 [Compound 603, N-(adamantan-1-ylmethyl)-2-(piperazin-1-ylcarbonyl) imidazo[1,2-a]pyridine-5-carboxamide]
< 2000 nM	CC(=O)NC1CCN(C(=O)c2cn3c(C(=O)NC[C@@H]4CC[C@H]5C[C@@H]4C5(C)C)cccc3n2)C1 (stereo partly drawn) [Compound 457, 2-[(3-acetamidopyrrolidin-1-yl)carbonyl]-N-{[(1S,2R,5S)-6,6-dimethylbicyclo[3.1.1]hept-2-yl]methyl}imidazo[1,2-a]pyridine-5-carboxamide]
< 2000 nM	O=C(NCC12CC3CC(CC(C3)C1)C2)c1cccc2nc(C(=O)N3C[C@@H]4C[C@H]3CN4)cn12 [Compound 609, N-(adamantan-1-ylmethyl)-2-[(1S,4S)-2,5-diazabicyclo [2.2.1]hept-2-ylcarbonyl]imidazo[1,2-a]pyridine-5-carboxamide]
< 2000 nM	CCOC(=O)Cc1cn2c(C(=O)NCC(CC(C)C)c3cccnc3)cccc2n1 (stereo not shown) [Compound 533, ethyl {5-[(4-methyl-2-pyridin-3-ylpentyl)carbamoyl]imidazo[1,2-a]pyridin-2-yl}acetate]

Same assay, conditions: 50% decrease in the fluorescence response of cells exposed to 80 μM of 2′(3′)-O-(4-benzoyl-benzoyl)adenosine 5′-triphosphate; Example 4A; read-out: IC50

IC50	SMILES
< 2000 nM	O=C(NCC12CC3CC(CC(C3)C1)C2)c1cccc2nc(C(=O)N3CCN(C4CCOCC4)CC3)cn12 [Compound 721, N-(adamantan-1-ylmethyl)-2-{[4-(tetrahydro-2H-pyran-4-yl)piperazin-1-yl]carbonyl}imidazo[1,2-a]pyridine-5-carboxamide]
< 2000 nM	CC(C)c1ccc(CN(C)C(=O)c2cn3c(C(=O)NCC45CC6CC(CC(C6)C4)C5)cccc3n2)cn1 [Compound 717, 5-N-(adamantan-1-ylmethyl)-2-N-[(6-isopropylpyridin-3-yl)methyl]-2-N-methylimidazo[1,2-a]pyridine-2,5-dicarboxamide]
< 2000 nM	CC(C)(C)OC(=O)C(C#N)Cc1cn2c(C(=O)NCC34CC5CC(CC(C5)C3)C4)cccc2n1 (stereo not shown) [Compound 806, tert-butyl 3-{5-[(adamantan-1-ylmethyl)carbamoyl]imidazo[1,2-a]pyridin-2-yl}-2-cyanopropanoate]
< 2000 nM	CN1C2CCC1CC(NC(=O)c1cn3c(C(=O)NCC45CC6CC(CC(C6)C4)C5)cccc3n1)C2 (stereo not shown) [Compound 667, 5-N-(adamantan-1-ylmethyl)-2-N-(8-methyl-8-azabicyclo[3.2.1]oct-3-yl)imidazo[1,2-a]pyridine-2,5-dicarboxamide]

SMILES	IC50
CN(C)C1CCCN(C(=O)Cc2cn3c(C(=O)NC[C@H]4CCC5CC4C5(C)C)cccc3n2)C1 (stereo partly drawn) [Compound 790, 2-{2-[3-(dimethylamino)piperidin-1-yl]-2-oxoethyl}-N-{[(2S)-6,6-dimethylbicyclo [3.1.1]hept-2-yl]methyl}imidazo [1,2-a]pyridine-5-carboxamide]	< 2000 nM

Same assay, conditions: 50% decrease in the fluorescence response of cells exposed to 80 μM of 2′(3′)-O-(4-benzoyl-benzoyl)adenosine 5′-triphosphate; determined as in Example 4A; read-out: IC50

IC50	SMILES
< 2000 nM	O=C(Cc1cn2c(C(=O)NCC3(c4ccc(Cl)cc4)CCOCC3)cccc2n1)N[C@@H]1CCCNC1 [Compound 926, N-{[4-(4-chlorophenyl)tetrahydro-2H-pyran-4-yl]methyl}-2-{2-oxo-2-[(3R)-piperidin-3-ylamino]ethyl}imidazo [1,2-a]pyridine-5-carboxamide]
< 2000 nM	O=C(O)CC(Cc1ccccc1)c1cn2c(C(=O)NCC34CC5CC(CC(C5)C3)C4)cccc2n1 (stereo not shown) [Compound 994, 3-{5-[(adamantan-1-ylmethyl)carbamoyl]imidazo[1,2-a]pyridin-2-yl}-4-phenylbutanoic acid]
< 2000 nM	CC(C)CC(CNC(=O)c1cccc2nc(CN3CC[C@@H](N)C3)cn12)c1cccnc1 (stereo partly drawn) [Compound 823, 2-{[(3R)-3-aminopyrrolidin-1-yl]methyl}-N-(4-methyl-2-pyridin-3-ylpentyl)imidazo[1,2-a]pyridine-5-carboxamide]
< 2000 nM	CC(C)CC(CNC(=O)c1cccc2nc(CC(=O)O)cn12)c1ccc(Cl)cc1 (stereo not shown) [Compound 964, (5-{[2-(4-chlorophenyl)-4-methylpentyl]carbamoyl}imidazo[1,2-a]pyridin-2-yl) acetic acid]
< 2000 nM	CNC(=O)c1ccc(NC(=O)Cc2cn3c(C(=O)NCC4CCCCCC4)cccc3n2)cc1 [Compound 957, N-(cycloheptylmethyl)-2-(2-{[4-(methylcarbamoyl)phenyl]amino}-2-oxoethyl) imidazo[1,2-a] pyridine-5-carboxamide]

Same assay, conditions: SH-SY5Y cells; 50% decrease in fluorescence response to 80 μM BzATP; read-out: IC50

IC50	SMILES
< 2000 nM	CN1CCN(C(=O)c2cn3c(C(=O)NCC45CC6CC(CC(C6)C4)C5)cccc3n2)CC1 [Compound 89, N-(adamantan-1-ylmethyl)-2-[(4-methylpiperazin-1-yl)carbonyl]imidazo[1,2-a]pyridine-5-carboxamide]
< 2000 nM	COC1CCCN(C(=O)c2cn3c(C(=O)NCC45CC6CC(CC(C6)C4)C5)cccc3n2)C1 (stereo not shown) [Compound 100, N-(adamantan-1-ylmethyl)-2-[(3-methoxypiperidin-1-yl)carbonyl]imidazo[1,2-a]pyridine-5-carboxamide]
< 2000 nM	CCCOCCNC(=O)Cc1cn2c(C(=O)NCC34CC5CC(CC(C5)C3)C4)cccc2n1 [Compound 159, N-(adamantan-1-ylmethyl)-2-{2-oxo-2-[(2-propoxyethyl)amino]eth-yl}imidazo[1,2-a]pyridine-5-carboxamide]
< 2000 nM	O=C(NCC12CC3CC(CC(C3)C1)C2)c1cccc2nc(CC(=O)N3CC(O)C3)cn12 [Compound 55, N-(adamantan-1-ylmethyl)-2-[2-(3-hydroxyazetidin-1-yl)-2-oxoethyl]imidazo[1,2-a]pyridine-5-carboxamide]
< 2000 nM	O=C(Cc1cn2c(C(=O)NCC34CC5CC(CC(C5)C3)C4)cccc2n1)NC1CCC1 [Compound 151, N-(adamantan-1-ylmethyl)-2-[2-(cyclobutylamino)-2-oxoethyl]imidazo[1,2-a]pyridine-5-carboxamide]
< 2000 nM	O=C(Cc1cn2c(C(=O)NCC34CC5CC(CC(C5)C3)C4)cccc2n1)NC1CC1 [Compound 148, N-(adamantan-1-ylmethyl)-2-[2-(cyclopropylamino)-2-oxoethyl]imidazo[1,2-a]pyridine-5-carboxamide]
< 2000 nM	O=C(NCC12CC3CC(CC(C3)C1)C2)c1cccc2nc(CN3CC[C@@H](N(CCO)CCO)C3)cn12 [Compound 197, N-(adamantan-1-ylmethyl)-2-({(3R)-3-[bis(2-hydroxy-ethyl)amino]pyrrolidin-1-yl}methyl)imidazo[1,2-a]pyridine-5-carboxamide]
< 2000 nM	NC(=O)CNC(=O)Cc1cn2c(C(=O)NCC34CC5CC(CC(C5)C3)C4)cccc2n1 [Compound 24, N-(adamantan-1-ylmethyl)-2-{2-[(2-amino-2-oxoethyl)amino]-2-oxoethyl}imidazo[1,2-a]pyridine-5-carboxamide]
< 2000 nM	CN(C)CCN(C)C(=O)c1cn2c(C(=O)NCC34CC5CC(CC(C5)C3)C4)cccc2n1 [Compound 91, 5-N-(adamantan-1-ylmethyl)--[2-(dimethylamino)ethyl]-- methylimidazo[1,2-a]pyridine-2,5-dicarboxamide]

SMILES	IC50
CC(C)N1CCN(C(=O)Cc2cn3c(C(=O)NCC45CC6CC(CC(C6)C4)C5)cccc3n2)CC1 [Compound 164, N-(adamantan-1-ylmethyl)-2-[2-(4-isopropylpiperazin-1-yl)-2-oxoethyl]imidazo[1,2-a]pyridine-5-carboxamide]	< 2000 nM

Same assay, conditions: fluorescence response of cells exposed to 80 μM 2′(3′)-O-(4-benzoyl-benzoyl)adenosine 5′-triphosphate; Example 4A; read-out: IC50

IC50	SMILES
< 2000 nM	O=C(O)CS(=O)(=O)Cc1cn2c(C(=O)NCC34CC5CC(CC(C5)C3)C4)cccc2n1 [Compound 289, [({5-[(adamantan-1-ylmethyl)carbamoyl]imidazo[1,2-a]pyridin-2-yl}methyl)sulfonyl] acetic acid]
< 2000 nM	Cc1cc(-c2cn3c(C(=O)NCC45CC6CC(CC(C6)C4)C5)cccc3n2)n[nH]1 [Compound 284, N-(adamantan-1-ylmethyl)-2-(5-methyl-1H-pyrazol-3-yl)imidazo[1,2-a]pyridine-5-carboxamide]
< 2000 nM	CS(=O)(=O)N1CCN(C(=O)c2cn3c(NC(=O)CC45CC6CC(CC(C6)C4)C5)cccc3n2)CC1 [Compound 399, 2-adamantan-1-yl-N-(2-{[4-(methylsulfonyl)piperazin-1-yl]carbonyl}imidazo [1,2-a]pyridin-5-yl)acetamide]
